In ChEMBL document CHEMBL1201862, “PubChem BioAssay data set” (2004):
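Assay format: 96-well plates, 48-hour exposure. Abbreviation: GI50, concentration required for 50% inhibition of growth.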 The source made the active and inactive calls. Cut-off read from the data, not from the text of the source: active = GI50 up to about 1.1 µM and inactive = higher.

Tests used:
Assay in all cases: DTP human tumour cell line panel, 48 h
786-0 = test system: 786-0
A549 = test system: A549
ACHN = test system: ACHN
BT-549 = test system: BT-549
CAKI-1 = test system: CAKI-1
CCRF-CEM = test system: CCRF-CEM
COLO 205 = test system: COLO 205
DU-145 = test system: DU-145
EKVX = test system: EKVX
HCC 2998 = test system: HCC 2998
HCT-116 = test system: HCT-116
HCT-15 = test system: HCT-15
HL-60 = test system: HL-60
HOP-62 = test system: HOP-62
HOP-92 = test system: HOP-92
HT-29 = test system: HT-29
Hs-578T = test system: Hs-578T
IGROV-1 = test system: IGROV-1
K562 = test system: K562
KM12 = test system: KM12
LOX IMVI = test system: LOX IMVI
M14 = test system: M14
MCF7 = test system: MCF7
MDA-MB-231 = test system: MDA-MB-231
MDA-MB-435 = test system: MDA-MB-435
MDA-N = test system: MDA-N
MOLT-4 = test system: MOLT-4
Malme-3M = test system: Malme-3M
NCI-H226 = test system: NCI-H226
NCI-H23 = test system: NCI-H23
NCI-H522 = test system: NCI-H522
NCI/ADR-RES = test system: NCI/ADR-RES
OVCAR-3 = test system: OVCAR-3
OVCAR-4 = test system: OVCAR-4
OVCAR-5 = test system: OVCAR-5
OVCAR-8 = test system: OVCAR-8
PC-3 = test system: PC-3
RPMI-8226 = test system: RPMI-8226
RXF 393 = test system: RXF 393
SF-268 = test system: SF-268
SF-295 = test system: SF-295
SF-539 = test system: SF-539
SK-MEL-28 = test system: SK-MEL-28
SK-MEL-2 = test system: SK-MEL-2
SK-MEL-5 = test system: SK-MEL-5
SK-OV-3 = test system: SK-OV-3
SN12C = test system: SN12C
SNB-19 = test system: SNB-19
SNB-75 = test system: SNB-75
SR = test system: SR
SW-620 = test system: SW-620
T47D = test system: T47D
TK-10 = test system: TK-10
U-251 = test system: U-251
UACC-257 = test system: UACC-257
UACC-62 = test system: UACC-62
UO-31 = test system: UO-31

## O=C1NC(N2CCCC(CO)C2)=N/C1=C\c1cccs1 (configuration not stated)
786-0
  GI50: > 100 µM (inactive)
A549
  GI50: > 100 µM (inactive)
ACHN
  GI50: > 100 µM (inactive)
BT-549
  GI50: > 100 µM (inactive)
CAKI-1
  GI50: > 100 µM (inactive)
CCRF-CEM
  GI50: > 100 µM (inactive)
COLO 205
  GI50: > 100 µM (inactive)
DU-145
  GI50: > 100 µM (inactive)
EKVX
  GI50: > 100 µM (inactive)
HCC 2998
  GI50: > 100 µM (inactive)
HCT-116
  GI50: > 100 µM (inactive)
HCT-15
  GI50: > 100 µM
HL-60
  GI50: > 100 µM (inactive)
HOP-62
  GI50: > 100 µM (inactive)
HOP-92
  GI50: > 100 µM (inactive)
HT-29
  GI50: > 100 µM (inactive)
Hs-578T
  GI50: > 100 µM (inactive)
IGROV-1
  GI50: > 100 µM (inactive)
K562
  GI50: > 100 µM (inactive)
KM12
  GI50: > 100 µM (inactive)
LOX IMVI
  GI50: > 100 µM (inactive)
M14
  GI50: > 100 µM (inactive)
MCF7
  GI50: > 100 µM (inactive)
MDA-MB-231
  GI50: > 100 µM (inactive)
MDA-MB-435
  GI50: > 100 µM (inactive)
MDA-N
  GI50: > 100 µM (inactive)
MOLT-4
  GI50: > 100 µM (inactive)
Malme-3M
  GI50: > 100 µM (inactive)
NCI-H226
  GI50: > 100 µM (inactive)
NCI-H23
  GI50: > 100 µM (inactive)
NCI-H522
  GI50: > 100 µM (inactive)
NCI/ADR-RES
  GI50: > 100 µM (inactive)
OVCAR-3
  GI50: > 100 µM (inactive)
OVCAR-4
  GI50: > 100 µM (inactive)
OVCAR-5
  GI50: > 100 µM (inactive)
OVCAR-8
  GI50: > 100 µM (inactive)
PC-3
  GI50: > 100 µM (inactive)
RPMI-8226
  GI50: > 100 µM (inactive)
RXF 393
  GI50: > 100 µM (inactive)
SF-268
  GI50: > 100 µM (inactive)
SF-295
  GI50: > 100 µM (inactive)
SF-539
  GI50: > 100 µM (inactive)
SK-MEL-28
  GI50: > 100 µM (inactive)
SK-MEL-2
  GI50: > 100 µM (inactive)
SK-MEL-5
  GI50: > 100 µM (inactive)
SK-OV-3
  GI50: > 100 µM (inactive)
SN12C
  GI50: > 100 µM (inactive)
SNB-19
  GI50: > 100 µM (inactive)
SNB-75
  GI50: 98.2 µM (inactive)
SR
  GI50: > 100 µM (inactive)
SW-620
  GI50: > 100 µM (inactive)
T47D
  GI50: > 100 µM (inactive)
TK-10
  GI50: > 100 µM (inactive)
U-251
  GI50: > 100 µM (inactive)
UACC-257
  GI50: > 100 µM (inactive)
UACC-62
  GI50: > 100 µM (inactive)
UO-31
  GI50: > 100 µM (inactive)
